# According to ChEMBL document CHEMBL5131399, “Broadening antifungal spectrum and improving metabolic stablity based on a scaffold strategy: Design, synthesis, and evaluation of novel 4-phenyl-4,5-dihydrooxazole derivatives as potent fungistatic and fungicidal reagents” (Eur J Med Chem, 2022):
# Assays:
# Candida parapsilosis = test: Antifungal activity against Candida parapsilosis GIM2.190 assessed as fungal growth inhibition by NCCLS protocol based method; format: functional; conditions: Lodderomyces parapsilosis
# Candida albicans [1] = test: Antifungal activity against FLC-resistant Candida albicans 103 assessed as fungal growth inhibition by NCCLS protocol based method; format: functional
# Candida albicans [2] = test: Antifungal activity against FLC-resistant Candida albicans CaR assessed as fungal growth inhibition by NCCLS protocol based method; format: functional
# Cryptococcus neoformans = test: Antifungal activity against Cryptococcus neoformans CGMCC 2.3161 assessed as fungal growth inhibition by NCCLS protocol based method; format: functional
# Aspergillus fumigatus = test: Antifungal activity against Aspergillus fumigatus CGMCC3.7795 assessed as fungal growth inhibition by NCCLS protocol based method; format: functional
# Candida albicans [3] = test: Antifungal activity against FLC-resistant Candida albicans 311 assessed as fungal growth inhibition by NCCLS protocol based method; format: functional
# Candida albicans [4] = test: Antibiofilm activity against FLC-resistant Candida albicans CPCC400616 assessed as assessed as inhibition of biofilm formation measured at 3 hrs by XTT reduction assay; format: functional
# Candida albicans [5] = test: Antibiofilm activity against FLC-resistant Candida albicans CPCC400616 assessed as assessed as inhibition of biofilm formation measured at 24 hrs by XTT reduction assay; format: functional
# A549 = test: Cytotoxicity against human A549 cells assessed as inhibition of cell growth incubated for 4 hrs by MTT assay; format: functional, cell-based; conditions: A549, 4 h
# Candida albicans [6] = test: Antibiofilm activity against FLC-resistant Candida albicans CPCC400616 assessed as assessed as inhibition of biofilm formation measured at 18 hrs by XTT reduction assay; format: functional
# Candida albicans [7] = test: Antifungal activity against FLC-resistant Candida albicans 904 assessed as fungal growth inhibition by NCCLS protocol based method; format: functional
# Candida tropicalis = test: Antifungal activity against Candida tropicalis CGMCC 2.3739 assessed as fungal growth inhibition by NCCLS protocol based method; format: functional
# Candida albicans [8] = test: Fungicidal activity against Candida albicans CPCC400616 assessed as minimum fungicidal concentration incubated for 48 hrs; format: functional
# Nakaseomyces glabratus = test: Antifungal activity against Candida glabrata clinical isolate assessed as fungal growth inhibition by NCCLS protocol based method; format: functional
# HepG2 = test: Cytotoxicity against human HepG2 cells assessed as inhibition of cell growth incubated for 4 hrs by MTT assay; format: functional, cell-based; conditions: HepG2, 4 h
# [9] = Cytotoxicity against human HEK293T cells assessed as inhibition of cell growth incubated for 4 hrs by MTT assay; format: toxicity, cell-based, HEK-293T
# Candida albicans [10] = test: Antifungal activity against FLC-resistant Candida albicans 901 assessed as fungal growth inhibition by NCCLS protocol based method; format: functional
# MCF7 = test: Cytotoxicity against human MCF7 cells assessed as inhibition of cell growth incubated for 4 hrs by MTT assay; format: functional, cell-based; conditions: MCF7, 4 h
# Pichia kudriavzevii = test: Antifungal activity against Candida krusei GIM2.1 assessed as fungal growth inhibition by NCCLS protocol based method; format: functional
# Candida albicans [11] = test: […] for fungicidal activity against Candida albicans CPCC400616; format: functional
# Candida albicans [12] = test: Antifungal activity against FLC-resistant Candida albicans 100 assessed as fungal growth inhibition by NCCLS protocol based method; format: functional
# Candida albicans [13] = test: Antifungal activity against FLC-resistant Candida albicans 632 assessed as fungal growth inhibition by NCCLS protocol based method; format: functional
# Candida albicans [14] = test: Antifungal activity against Candida albicans ATCC SC5314 assessed as fungal growth inhibition by NCCLS protocol based method; format: functional
# Candida albicans [15] = test: Antibiofilm activity against FLC-resistant Candida albicans CPCC400616 assessed as assessed as inhibition of biofilm formation measured at 6 hrs by XTT reduction assay; format: functional
# Candida albicans [16] = test: Antifungal activity against Candida albicans CPCC400616 assessed as fungal growth inhibition by NCCLS protocol based method; format: functional
# Candida albicans [17] = test: Fungicidal activity against Candida albicans CPCC400616 assessed as minimum inhibitory concentration incubated for 48 hrs; format: functional
# [18] = AUClast in Sprague-Dawley rat at 3 mg/kg, iv measured after 24 hrs by LC-MS/MS analysis; format: ADME, organism-based; design: time 24 hrs, dose 3 mg/kg, route iv; conditions: in vivo
# [19] = Stability in human plasma assessed as compound remaining measured at 120 mins by LC/MS-MS analysis; format: ADME, cell-free; conditions: read-out: Stability
# Candida albicans [20] = test: Fungicidal activity against Candida albicans CPCC400616 assessed as reduction in colony forming units at 8 times MIC incubated for 24 hrs by time kill assay; format: functional
# [21] = Stability in human plasma assessed as compound remaining measured at 60 mins by LC/MS-MS analysis; format: ADME, cell-free; conditions: read-out: Stability
# [22] = Half life in Sprague-Dawley rat at 3 mg/kg, iv measured after 24 hrs by LC-MS/MS analysis; format: ADME, organism-based; conditions: in vivo
# [23] = Half life in Sprague-Dawley rat at 10 mg/kg, po measured after 24 hrs by LC-MS/MS analysis; format: ADME, organism-based; conditions: in vivo
# [24] = AUClast in Sprague-Dawley rat at 10 mg/kg, po measured after 24 hrs by LC-MS/MS analysis; format: ADME, organism-based; design: dose 10 mg/kg, time 24 hrs, route po; conditions: in vivo
# Candida albicans [25] = test: Fungicidal activity against Candida albicans CPCC400616 assessed as reduction in colony forming units at 2 to 8 times MIC incubated for 24 hrs by time kill assay; format: functional, organism-based; conditions: DDE = dose-dependent effect
# [26] = Metabolic stability in human microsomes assessed as intrinsic clearance preincubated for 10 mins followed by NADPH addition and measured after 5 to 60 mins by LC-MS/MS analysis; format: ADME, Microsome; conditions: time 15-70 min
# [27] = Stability in human plasma assessed as half life measured at 120 mins by LC/MS-MS analysis; format: ADME, cell-free
# [28] = Metabolic stability in human liver microsomes assessed as compound remaining preincubated for 10 mins followed by NADPH addition and measured at 60 mins by LC-MS/MS analysis; format: ADME, Microsome; conditions: time 70 min, read-out: Stability
# [29] = Oral bioavailability in Sprague-Dawley rat at 10 mg/kg measured measured after 24 hrs by LC-MS/MS analysis; format: ADME, organism-based; conditions: in vivo
# [30] = Metabolic stability in human liver microsomes assessed as half life preincubated for 10 mins followed by NADPH addition and measured after 5 to 60 mins by LC-MS/MS analysis; format: ADME, Microsome; conditions: time 15-70 min
SMILES,MIC (Candida parapsilosis),MIC (Candida albicans [1]),MIC (Candida albicans [2]),MIC (Cryptococcus neoformans),MIC (Aspergillus fumigatus),MIC (Candida albicans [3]),MIC50 (Candida albicans [4]),MIC50 (Candida albicans [5]),IC50 (A549),MIC50 (Candida albicans [6]),MIC (Candida albicans [7]),MIC (Candida tropicalis),MFC (Candida albicans [8]),MIC (Nakaseomyces glabratus),MIC (Candida albicans [10]),MIC (Pichia kudriavzevii),MIC (Candida albicans [12]),MIC (Candida albicans [13]),MIC (Candida albicans [14]),MIC (Candida albicans [16]),other results
OC(Cn1cncn1)(Cn1cncn1)c1ccc(F)cc1F [FLUCONAZOLE],2 µg/mL,> 64 µg/mL,> 64 µg/mL,4 µg/mL,> 64 µg/mL,> 64 µg/mL,32 µg/mL,> 64 µg/mL,> 50 µM,> 64 µg/mL,> 64 µg/mL,0.5 µg/mL,> 64 µg/mL,4 µg/mL,> 64 µg/mL,8 µg/mL,> 64 µg/mL,> 64 µg/mL,0.5 µg/mL,1 µg/mL,IC50 (HepG2): > 50 µM; IC50 at 4 h [9]: > 50 µM; IC50 (MCF7): > 50 µM; Ratio (Candida albicans [11]): > 128; MIC50 (Candida albicans [15]): > 64 µg/mL; MIC (Candida albicans [17]): 0.5 µg/mL
Fc1ccc(C2(Cn3ccnc3)COC(c3ccc(-c4ccccc4F)s3)=N2)cc1 (stereo not drawn),0.25 µg/mL,0.25 µg/mL,0.25 µg/mL,0.125 µg/mL,0.25 µg/mL,0.125 µg/mL,0.125 µg/mL,8 µg/mL,> 50 µM,2 µg/mL,1 µg/mL,0.03 µg/mL,0.125 µg/mL,0.06 µg/mL,0.125 µg/mL,0.25 µg/mL,0.5 µg/mL,0.5 µg/mL,0.03 µg/mL,0.03 µg/mL,AUC(0-t) at 24 h [18]: 925 ng·h/mL; remaining at 2 h [19]: 101%; Activity (Candida albicans [20]): 2 log10CFU/ml; remaining at 1 h [21]: 98.7%; half-life [22]: 1.02 h; half-life [23]: 4.44 h; AUC(0-t) at 24 h [24]: 466 ng·h/mL; IC50 (HepG2): 17 µM; Activity (Candida albicans [25]): Dde; IC50 at 4 h [9]: 14.2 µM; IC50 (MCF7): > 50 µM; CLint [26]: 19.7 µL/min/mg; half-life [27]: > 4.8 h; Ratio (Candida albicans [11]): 4; remaining at 1 h [28]: 49.7%; bioavailability [29]: 15.1%; half-life [30]: 1.18 h; MIC50 (Candida albicans [15]): 1 µg/mL; MIC (Candida albicans [17]): 0.03 µg/mL
Cc1ccc(C(=O)C(Cn2ccnc2)NC(=O)c2ccc(-c3ccc(Cl)cc3)s2)cc1 (stereo not drawn),,,,,,,,,,,,,,,,,,,,,CLint [26]: 74.6 µL/min/mg; remaining at 1 h [28]: 9.3%; half-life [30]: 0.31 h
Cc1ccc(C2(Cn3ccnc3)COC(c3ccc(-c4ccccc4)s3)=N2)cc1 (stereo not drawn),1 µg/mL,4 µg/mL,2 µg/mL,0.25 µg/mL,16 µg/mL,8 µg/mL,,,,,4 µg/mL,8 µg/mL,,> 64 µg/mL,2 µg/mL,> 64 µg/mL,0.5 µg/mL,16 µg/mL,0.125 µg/mL,0.125 µg/mL,
